Source: the supplement of paper PMC10307832

How the values were obtained:
Test in all cases: relative viability (nuclei count vs DMSO), 5 days (fraction); higher = more cells survive
[1] = compound: COC1=CC=C(C=C1)COC2=C(C=C(C=C2)CC3=CN=C(N=C3N)N)OC [GW-2580] + CC(=O)Nc1cccc(-n2c(=O)n(C3CC3)c(=O)c3c(Nc4ccc(I)cc4F)n(C)c(=O)c(C)c32)c1 [Trametinib] (partner 0.02 µM)
In short: (§1)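 After 5 days of treatment, lung cancer cells in 1536-well plates were fixed and stained in a single step (final 0.05% Triton X-100, 1% formaldehyde, 1 ug/ml Hoechst) and their nuclei counted on 4× images. Treatment had been applied by pin tool the day after seeding as one drug alone or as a fixed anchor-drug dose with five library-drug doses (not always all listed) in √10 steps. Relative viability is the nuclei count of treated wells divided by that of vehicle wells, and values are medians of duplicate plates.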

[2] = compound: COC1=CC=C(C=C1)COC2=C(C=C(C=C2)CC3=CN=C(N=C3N)N)OC [GW-2580] + COc1cc2c(Oc3ccc(NC(=O)C4(C(=O)Nc5ccc(F)cc5)CC4)cc3F)ccnc2cc1OCCCN1CCOCC1 [Foretinib] (partner 0.25 µM)
In short: as §1

[3] = compound: COC1=CC=C(C=C1)COC2=C(C=C(C=C2)CC3=CN=C(N=C3N)N)OC [GW-2580] + CS(=O)(=O)CCNCc1ccc(-c2ccc3ncnc(Nc4ccc(OCc5cccc(F)c5)c(Cl)c4)c3c2)o1 [Lapatinib] (partner 2 µM)
In short: as §1

[4] = compound: Cc1cnc(Nc2ccc(OCCN3CCCC3)cc2)nc1Nc1cccc(S(=O)(=O)NC(C)(C)C)c1 [Fedratinib] + Cc1nc(Nc2ncc(C(=O)Nc3c(C)cccc3Cl)s2)cc(N2CCN(CCO)CC2)n1 [Dasatinib] (partner 0.075 µM)
In short: as §1

[5] = compound: Cc1cnc(Nc2ccc(OCCN3CCCC3)cc2)nc1Nc1cccc(S(=O)(=O)NC(C)(C)C)c1 [Fedratinib] + O=C(c1cc(Cc2n[nH]c(=O)c3ccccc23)ccc1F)N1CCN(C(=O)C2CC2)CC1 [Olaparib] (partner 8 µM)
In short: as §1

Work on UMC-11 yielded a relative viability ([1]; first compound 0.08 µM) of 0.826, a relative viability ([1]; first compound 0.8 µM) of 0.866 and a relative viability ([1]; first compound 2.53 µM) of 0.574. The relative viability ([1]; first compound 8 µM) was 0.817, the relative viability ([2]; first compound 0.08 µM) was 1.06 and the relative viability ([2]; first compound 0.8 µM) was 1.04. For the same cell line, the relative viability ([2]; first compound 2.53 µM) was 1.1, the relative viability ([2]; first compound 8 µM) was 1.23 and the relative viability ([3]; first compound 0.08 µM) was 1.26. For the same cell line, the relative viability ([3]; first compound 0.8 µM) was 1.11, the relative viability ([3]; first compound 2.53 µM) was 0.88 and the relative viability ([3]; first compound 8 µM) was 1.15. For the same cell line, the relative viability ([4]; first compound 0.1 µM) was 0.53, the relative viability ([4]; first compound 0.3162 µM) was 0.412 and the relative viability ([4]; first compound 1 µM) was 0.453. The relative viability ([5]; first compound 0.1 µM) was 0.3, the relative viability ([5]; first compound 0.3162 µM) was 0.33 and the relative viability ([5]; first compound 1 µM) was 0.23.
